Experimental data: patent US11224601B1, “Compounds that inhibits MCL-1 protein” (priority 2017, dated 2022)
Like-named read-outs stand apart in the source and are kept apart here.

How the values were obtained:
[1] = molecular target: recombinant human Mcl-1 (Mcl-1/Bim interaction) (Homo sapiens (Human), UniProt Q07820); test: biochemical; type: binding; details: cell free Mcl-1:Bim TR-FRET
Description: Cell free Mcl-1:Bim Affinity Assay (Mcl-1 HTRF)
The inhibition of the Mcl-1/Bim interaction was measured using a time-resolved fluorescence resonance energy transfer (TR-FRET) assay. The recombinant human Mcl-1 (C-terminally 6×His tagged Mcl-1 containing residues 171-327) was generated at Amgen Inc (Thousand Oaks, Calif.). A biotinylated peptide derived from human Bim (residues 51-76) was purchased from CPC Scientific (San Jose, Calif.). The TR-FRET assay was conducted in a 384-well white OptiPlate™ (PerkinElmer, Waltham, Mass.) in a total volume of 40 μL. The reaction mixture contained 0.1 nM Mcl-1(171-327), 0.05 nM biotin-Bim(51-76), 0.05 nM LANCE® Eu-W1024 Anti-6×His (PerkinElmer), 0.072 nM Streptavidin-Xlent (Cisbio, Bedford, Mass.), and serially diluted test compounds in the binding buffer of 20 mM Hepes, pH 7.5, 150 mM NaCl, 0.016 mM Brij® 35, and 1 mM dithiothreitol. Test compounds were pre-incubated with Mcl-1(171-327) and biotin-Bim (51-76) for 60 min before addition of the detection mixture (LANCE® Eu-W1024 Anti-6×His and Streptavidin-Xlent). The reaction plates were further incubated overnight and then were read on an Envision® multimode reader (PerkinElmer). Fluorescence signals were measured at 620 nm (40-nm bandwidth) and 665 nm (7.5-nm bandwidth) with a 60 μs delay after excitation at 320 nm (75-nm bandwidth). The signal ratio at 665/620 nm corresponded to the Mcl-1/Bim interaction and was used in all data analyses. The IC50 values of test compounds were determined from duplicate data by analyzing competition curves using a four-parameter sigmoidal model in GraphPad Prism (GraphPad Software, San Diego, Calif.) or in Genedata Screener® (Genedata, Basel, Switzerland).

[2] = tested on: OPM-2 human multiple myeloma cell line; test: Cell Viability Assay (OPM-2 10 FBS), CellTiter-Glo; type: cell-based
Description: Cell Viability Assay (OPM-2 10 FBS)
The human multiple myeloma cell line, OPM-2, was cultured in complete growth medium containing RPMI 1640 and 10% fetal bovine serum (FBS). Cells were seeded into 384-well plates at 3000 cells/well density in complete growth medium containing 10% FBS, and incubated for 16 h with serially diluted test compounds in a 37° C. incubator with 5% CO2. Cell viability was tested using CellTiter-Glo® assay (Promega, Madison, Wis.) according to the manufacturer recommendations. Luminescence was determined using an EnVision® Multilabel plate reader 25 min after the addition of detection reagent. IC50 values were then calculated with Xlfit using a logistical 4-parameter fit model in GraphPad Prism (GraphPad Software, San Diego, Calif.) or in Genedata Screener® (Genedata, Basel, Switzerland).

[3] = Homo sapiens, OPM-2, 16 h, read-out: OPM-2 10% FBS IC50 IP (μM), OPM-2 cells, 10% FBS, 16 h, CellTiter-Glo
[4] = read-out: OPM-2 10% FBS IC50 IP, OPM-2 cells, 10% FBS, 16 h, CellTiter-Glo

Sequence of recombinant human Mcl-1 (Mcl-1/Bim interaction) (Q07820 171-327): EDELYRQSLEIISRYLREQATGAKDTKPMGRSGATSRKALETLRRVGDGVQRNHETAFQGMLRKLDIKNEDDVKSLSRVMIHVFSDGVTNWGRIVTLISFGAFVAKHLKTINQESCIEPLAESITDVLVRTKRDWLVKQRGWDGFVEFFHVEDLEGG

Row | Compound | IC50 ([1]; read-out: Mel-1 HTRF IC50) [nM] | IC50 ([2]; Homo sapiens, OPM-2, 16 h, read-out: OPM-2 10% FBS IC50 IP, OPM-2 cells, 10% FBS, 16 h, CellTiter-Glo) [µM] | IC50 ([1]; read-out: Mcl-1 HTRF IC50) [nM] | IC50 [2, 3] [µM] | IC50 [2, 4] [µM]
1 | CO[C@@]1(C#CCCc2ccncn2)/C=C/C[C@H](C)[C@@H](C)S(=O)(=O)NC(=O)c2ccc3c(c2)N(C[C@@H]2CC[C@H]21)C[C@@]1(CCCc2cc(Cl)ccc21)CO3 [Example 100519, (1S,3′R,6′R,7′S,8′E,11′S,12′R)-6-chloro-7′-methoxy-11′,12′-dimethyl-7′-(4-(4-pyrimidinyl)-1-butyn-1-yl)-3,4-dihydro-2H,15′H-spiro[naphthalene-1,22′-[20]oxa[13]thia[1,14]diazatetracyclo [14.7.2.0~3,6~.0~19,24~]pentacosa[8,16,18,24]tetraen]-15′-one 13′,13′-dioxide] | 0.175 | 0.138 |  |  | 
2 | COCC[C@@H]1[C@@H](C)C/C=C/[C@](CN2CCN3CCOC[C@@H]3C2)(OC)[C@@H]2CC[C@H]2CN2C[C@@]3(CCCc4cc(Cl)ccc43)COc3ccc(nc32)C(=O)NS1(=O)=O [Example 20, (1S,3′R,6′R,7′S,8′E,11′S,12′R)-6-chloro-7′-((9aS)-hexahydropyrazino[2,1-c][1,4]oxazin-8(1H)-ylmethyl)-7′-methoxy-12′-(2-methoxyethyl)-11′-methyl-3,4-dihydro-2H,15′H-spiro[naphthalene-1,22′-[20]oxa[13]thia[1,14,25]triazatetracyclo[14.7.2.0˜3,6˜.0˜19,24˜]pentacosa[8,16,18,24]tetraen]-15′-one 13′,13′-dioxide] |  |  | 0.082 | 0.022 | 
3 | CO[C@]1(CN2CCN3CCCC[C@@H]3C2)/C=C/C[C@H](C)[C@@H](CCN(C)C)S(=O)(=O)NC(=O)c2ccc3c(c2)N(C[C@@H]2CC[C@H]21)C[C@@]1(CCCc2cc(Cl)ccc21)CO3 [Example 367, (1S,3′R,6′R,7′R,8′E,11′S,12′R)-6-chloro-12′-(2-(dimethylamino)ethyl)-7′-methoxy-11′-methyl-7′-((9aR)-octahydro-2H-pyrido[1,2-a]pyrazin-2-ylmethyl)-3,4-dihydro-2H,15′H-spiro[naphthalene-1,22′-[20]oxa[13]thia[1,14]diazatetracyclo[14.7.2.0˜3,6˜.0˜19,24˜]pentacosa[8,16,18,24]tetraen]-15′-one 13′,13′-dioxide] |  |  | 0.201 | 0.273 | 
4 | CO[C@]1(CN2CCN3CCN(C(C)=O)C[C@@H]3C2)/C=C/C[C@H](C)[C@@H](C)S(=O)(=O)NC(=O)c2ccc3c(c2)N(C[C@@H]2CC[C@H]21)C[C@@]1(CCCc2cc(Cl)ccc21)CO3 (stereo in doubt) [Example 218] |  |  | 0.142 | 0.092 | 
5 | CO[C@]1(CN2CCN3CCCC[C@@H]3C2)/C=C/C[C@H](C)[C@@H](CCO)S(=O)(=O)NC(=O)c2ccc3c(c2)N(C[C@@H]2CC[C@H]21)C[C@@]1(CCCc2cc(Cl)ccc21)CO3 [Example 358, (1S,3′R,6′R,7′R,8′E,11′S,12′R)-6-chloro-12′-(2-hydroxyethyl)-7′-methoxy-11′-methyl-7′-((9aR)-octahydro-2H-pyrido[1,2-a]pyrazin-2-ylmethyl)-3,4-dihydro-2H,15′H-spiro[naphthalene-1,22′-[20]oxa[13]thia[1,14]diazatetracyclo[14.7.2.0˜3,6˜.0˜19,24˜]pentacosa[8,16,18,24]tetraen]-15′-one 13′,13′-dioxide] |  |  | 0.066 | 0.144 | 
6 | CO[C@@]1(C(=O)N(C)C)/C=C/C[C@H](C)[C@@H](C)S(=O)(=O)NC(=O)c2ccc3c(c2)N(C[C@@H]2CC[C@H]21)C[C@@]1(CCCc2cc(Cl)ccc21)CO3 [Example 176, (1S,3′R,6′R,7′S,8′E,11′S,12′R)-6-chloro-7′-methoxy-N,N,11′,12′-tetramethyl-15′-oxo-3,4-dihydro-2H-spiro[naphthalene-1,22′-[20]oxa[13]thia[1,14]diazatetracyclo[14.7.2.0˜3,6˜.0˜19,24˜]pentacosa[8,16,18,24]tetraene]-7′-carboxamide 13′,13′-dioxide] |  |  | 0.118 | 0.149 | 
7 | CO[C@@]1(CN2CCN3CCOC[C@@H]3C2)/C=C/C[C@H](C)[C@@H](CCCl)S(=O)(=O)NC(=O)c2ccc3c(c2)N(C[C@@H]2CC[C@H]21)C[C@@]1(CCCc2cc(Cl)ccc21)CO3 [Example 366, (1S,3′R,6′R,7′S,8′E,11′S,12′R)-6-chloro-12′-(2-chloroethyl)-7′-((9aS)-hexahydropyrazino[2,1-c][1,4]oxazin-8(1H)-ylmethyl)-7′-methoxy-11′-methyl-3,4-dihydro-2H,15′H-spiro[naphthalene-1,22′-[20]oxa[13]thia[1,14]diazatetracyclo[14.7.2.0˜3,6˜.0˜19,24˜]pentacosa[8,16,18,24]tetraen]-15′-one 13′,13′-dioxide] |  |  | 0.248 | 0.133 | 
8 | CO[C@]1(CN2CCN3CCCC[C@@H]3C2)/C=C/C[C@H](C)[C@@H](CCO[Si](c2ccccc2)(c2ccccc2)C(C)(C)C)S(=O)(=O)NC(=O)c2ccc3c(c2)N(C[C@@H]2CC[C@H]21)C[C@@]1(CCCc2cc(Cl)ccc21)CO3 [Example 359, (1S,3′R,6′R,7′R,8′E,11′S,12′R)-6-chloro-7′-methoxy-11′-methyl-12′-(2-(((2-methyl-2-propanyl)(diphenyl)silyl)oxy)ethyl)-7′-((9aR)-octahydro-2H-pyrido[1,2-a]pyrazin-2-ylmethyl)-3,4-dihydro-2H,15′H-spiro[naphthalene-1,22′-[20]oxa[13]thia[1,14]diazatetracyclo[14.7.2.0˜3,6˜.0˜19,24˜]pentacosa[8,16,18,24]tetraen]-15′-one 13′,13′-dioxide] |  |  | 2.08 | > 33.3 | 
9 | CC(C)CO[C@@]1(CN2CCN(C3COC3)CC2)/C=C/C[C@H](C)[C@@H](C)S(=O)(=O)NC(=O)c2ccc3c(c2)N(C[C@@H]2CC[C@H]21)C[C@@]1(CCCc2cc(Cl)ccc21)CO3 [Example 348, (1S,3′R,6′R,7′S,8′E,11′S,12′R)-6-chloro-11′,12′-dimethyl-7′-(2-methylpropoxy)-7′-((4-(3-oxetanyl)-1-piperazinyl)methyl)-3,4-dihydro-2H,15′H-spiro[naphthalene-1,22′-[20]oxa[13]thia[1,14]diazatetracyclo[14.7.2.0˜3,6˜.0˜19,24˜]pentacosa[8,16,18,24]tetraen]-15′-one 13′,13′-dioxide] |  |  | 2.62 | 5.36 | 
10 | CO[C@]1(C(=O)N(C)C)/C=C/C[C@H](C)[C@@H](C)S(=O)(=O)NC(=O)c2ccc3c(c2)N(C[C@@H]2CC[C@H]21)C[C@@]1(CCCc2cc(Cl)ccc21)CO3 [Example 177, (1S,3′R,6′R,7′R,8′E,11′S,12′R)-6-chloro-7′-methoxy-N,N,11′,12′-tetramethyl-15′-oxo-3,4-dihydro-2H-spiro[naphthalene-1,22′-[20]oxa[13]thia[1,14]diazatetracyclo[14.7.2.0˜3,6˜.0˜19,24˜]pentacosa[8,16,18,24]tetraene]-7′-carboxamide 13′,13′-dioxide] |  |  | 0.153 | 0.615 | 
11 | (1S,3′R,6′R,7′R,11′S,12′R)-6-chloro-7′- hydroxy-11′,12′-dimethyl-7′-(1-methyl-4- piperidinyl)-3,4-dihydro-2H,15′H- spiro[naphthalene-1,22′- [20]oxa[13]thia[1,14]diazatetracyclo [14.7.2.0~3,6~.0~19,24~]pentacosa[16,18,24] trien]-15′-one 13′,13′-dioxide [Example 100382] | 0.471 |  |  |  | 0.312
12 | CO[C@]1(CN2CCN3CC[C@H](F)C[C@@H]3C2)/C=C/C[C@H](C)[C@@H](C)S(=O)(=O)NC(=O)c2ccc3c(c2)N(C[C@@H]2CC[C@H]21)C[C@@]1(CCCc2cc(Cl)ccc21)CO3 (stereo in doubt) [Example 293] |  |  | 0.242 |  | 0.207
13 | CO[C@@]1(CN2CCN([C@H]3CCOC3)CC2)/C=C/C[C@H](C)[C@@H](C)S(=O)(=O)NC(=O)c2ccc3c(c2)N(C[C@@H]2CC[C@H]21)C[C@@]1(CCCc2cc(Cl)ccc21)CO3 (stereo in doubt) [Example 275] |  |  | 0.176 | 0.082 | 
14 | CO[C@@]1(CN2CCN3CCN(C)CC3C2)/C=C/C[C@H](C)[C@@H](C)S(=O)(=O)NC(=O)c2ccc3c(c2)N(C[C@@H]2CC[C@H]21)C[C@@]1(CCCc2cc(Cl)ccc21)CO3 (single isomer, unassigned) [Example 216] |  |  | 0.49 | 0.183 | 
15 | COCCO[C@@]1(CN2CCN3CCCC[C@@H]3C2)/C=C/C[C@H](C)[C@@H](C)S(=O)(=O)NC(=O)c2ccc3c(c2)N(C[C@@H]2CC[C@H]21)C[C@@]1(CCCc2cc(Cl)ccc21)CO3 [Example 151, (1S,3′R,6′R,7′S,8′E,11′S,12′R)-6-chloro-7′-(2-methoxyethoxy)-11′,12′-dimethyl-7′-((9aR)-octahydro-2H-pyrido[1,2-a]pyrazin-2-ylmethyl)-3,4-dihydro-2H,15′H-spiro[naphthalene-1,22′-[20]oxa[13]thia[1,14]diazatetracyclo[14.7.2.0˜3,6˜.0˜19,24˜]pentacosa[8,16,18,24]tetraen]-15′-one 13′,13′-dioxide] |  |  | 0.843 | 0.462 | 
16 | CO[C@]1(CN2CCN3CCCCC[C@@H]3C2)/C=C/C[C@H](C)[C@@H](C)S(=O)(=O)NC(=O)c2ccc3c(c2)N(C[C@@H]2CC[C@H]21)C[C@@]1(CCCc2cc(Cl)ccc21)CO3 (stereo in doubt) [Example 87] |  |  | 0.127 | 0.141 | 
